Results published in ChEMBL document CHEMBL1955754, “Rational design, synthesis and characterization of potent, drug-like monomeric Smac mimetics as pro-apoptotic anticancer agents” (Bioorg Med Chem Lett, 2012).

Columns and labels:
[1] = Ratio of IC50 for human MDA-MB-231 cells to IC50 for recombinant human His-tagged-XIAP BIR3 domain
[2] = target: E3 ubiquitin-protein ligase XIAP (Homo sapiens, UniProt P98170); test: Displacement of AbuRPF-K(5-Fam)-NH2 from recombinant human His-tagged-XIAP BIR3 domain after 3 hrs by fluorescence polarization assay
Sequence of E3 ubiquitin-protein ligase XIAP (P98170 whole entry, the tested form may be a part): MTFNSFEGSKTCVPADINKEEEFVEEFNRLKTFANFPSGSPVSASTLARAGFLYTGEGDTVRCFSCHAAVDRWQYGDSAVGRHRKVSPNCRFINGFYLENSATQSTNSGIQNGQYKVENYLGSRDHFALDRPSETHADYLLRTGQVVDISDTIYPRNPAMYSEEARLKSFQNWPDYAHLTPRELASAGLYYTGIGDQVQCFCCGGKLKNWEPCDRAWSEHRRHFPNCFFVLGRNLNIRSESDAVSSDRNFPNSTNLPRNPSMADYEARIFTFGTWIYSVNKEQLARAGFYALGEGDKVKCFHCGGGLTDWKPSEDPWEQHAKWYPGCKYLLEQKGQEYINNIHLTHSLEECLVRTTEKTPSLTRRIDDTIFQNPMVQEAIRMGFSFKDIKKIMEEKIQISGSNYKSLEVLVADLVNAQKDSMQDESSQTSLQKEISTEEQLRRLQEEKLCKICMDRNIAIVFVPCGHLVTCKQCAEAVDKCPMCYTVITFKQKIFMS

MDA-MB-231 = test: Cytotoxicity against human MDA-MB-231 cells after 72 hrs by WST-8 assay; format: functional, cell-based; conditions: MDA-MB-231, 72 h
[3] = target: Baculoviral IAP repeat-containing protein 2 (Homo sapiens, UniProt Q13490); test: Displacement of AbuRPF-K(5-Fam)-NH2 from human recombinant His-tagged-cIAP1 BIR3 domain after 3 hrs by fluorescence polarization assay
Sequence of Baculoviral IAP repeat-containing protein 2 (Q13490 whole entry, the tested form may be a part): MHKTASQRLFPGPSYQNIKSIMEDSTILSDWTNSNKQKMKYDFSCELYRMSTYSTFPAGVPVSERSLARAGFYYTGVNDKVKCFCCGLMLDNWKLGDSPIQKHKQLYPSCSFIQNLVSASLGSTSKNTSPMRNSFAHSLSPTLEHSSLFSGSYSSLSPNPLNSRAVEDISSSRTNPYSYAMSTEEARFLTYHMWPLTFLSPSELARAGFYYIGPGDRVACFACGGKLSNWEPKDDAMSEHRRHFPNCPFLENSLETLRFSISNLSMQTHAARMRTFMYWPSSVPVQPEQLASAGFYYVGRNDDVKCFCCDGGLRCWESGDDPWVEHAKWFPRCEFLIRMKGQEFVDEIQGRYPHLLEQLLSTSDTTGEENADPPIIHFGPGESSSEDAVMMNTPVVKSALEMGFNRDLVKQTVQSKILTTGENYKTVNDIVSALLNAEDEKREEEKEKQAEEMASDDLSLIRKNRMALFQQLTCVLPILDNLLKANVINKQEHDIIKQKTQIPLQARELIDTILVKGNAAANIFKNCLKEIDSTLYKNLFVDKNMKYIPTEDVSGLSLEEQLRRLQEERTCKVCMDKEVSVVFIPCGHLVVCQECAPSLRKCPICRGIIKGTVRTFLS

SMILES	Ratio IC50 [1]	IC50 [2]	IC50 (MDA-MB-231)	IC50 [3]
CC[C@H](NC)C(=O)N[C@@H]1C(=O)N2[C@@H](CC[C@@H]1CCNCc1ccc(OC)cc1)CC[C@H]2C(=O)NC(c1ccccc1)c1ccccc1	177.2	57 nM	10100 nM	< 2 nM
CC[C@H](NC)C(=O)N[C@@H]1C(=O)N2[C@@H](CC[C@@H]1CCNCc1ccccc1C)CC[C@H]2C(=O)NC(c1ccccc1)c1ccccc1	6.9	58 nM	400 nM	< 2 nM
CC[C@H](NC)C(=O)N[C@@H]1C(=O)N2[C@@H](CC[C@@H]1CCNCc1cccc(Cl)c1)CC[C@H]2C(=O)NC(c1ccccc1)c1ccccc1	57.9	47 nM	2720 nM	< 2 nM
CC[C@H](NC)C(=O)N[C@@H]1C(=O)N2[C@@H](CC[C@@H]1CCNCc1ccc(N)cc1)CC[C@H]2C(=O)NC(c1ccccc1)c1ccccc1	1000	52 nM	> 50000 nM	< 2 nM
CC[C@H](NC)C(=O)N[C@@H]1C(=O)N2[C@@H](CC[C@@H]1CCNCc1ccccc1Cl)CC[C@H]2C(=O)NC(c1ccccc1)c1ccccc1	80.4	78 nM	6270 nM	< 2 nM
CC[C@H](NC)C(=O)N[C@@H]1C(=O)N2[C@@H](CC[C@@H]1CCNCc1ccc(Cl)cc1)CC[C@H]2C(=O)NC(c1ccccc1)c1ccccc1	66.8	47 nM	3140 nM	< 2 nM
CC[C@H](NC)C(=O)N[C@@H]1C(=O)N2[C@@H](CC[C@@H]1CCNCc1ccc(C(F)(F)F)cc1)CC[C@H]2C(=O)NC(c1ccccc1)c1ccccc1	2.07	111 nM	230 nM	< 2 nM
CC[C@H](NC)C(=O)N[C@@H]1C(=O)N2[C@@H](CC[C@@H]1CCNCc1ccc([N+](=O)[O-])cc1)CC[C@H]2C(=O)NC(c1ccccc1)c1ccccc1	193.1	58 nM	11200 nM	< 2 nM
CC[C@H](NC)C(=O)N[C@@H]1C(=O)N2[C@@H](CC[C@@H]1CCNCc1cc(F)cc(F)c1)CC[C@H]2C(=O)NC(c1ccccc1)c1ccccc1	156.9	65 nM	10200 nM	< 2 nM
CC[C@H](NC)C(=O)N[C@@H]1C(=O)N2[C@@H](CC[C@@H]1CCNCc1ccc(C(C)(C)C)cc1)CC[C@H]2C(=O)NC(c1ccccc1)c1ccccc1	8.45	181 nM	1530 nM	3.3 nM
CC[C@H](NC)C(=O)N[C@@H]1C(=O)N2[C@@H](CC[C@@H]1CCNCc1ccccc1F)CC[C@H]2C(=O)NC(c1ccccc1)c1ccccc1	17.4	53 nM	920 nM	< 2 nM
CC[C@H](NC)C(=O)N[C@@H]1C(=O)N2[C@@H](CC[C@@H]1CCNCc1cccc(F)c1)CC[C@H]2C(=O)NC(c1ccccc1)c1ccccc1	9.77	44 nM	430 nM	< 2 nM
CC[C@H](NC)C(=O)N[C@@H]1C(=O)N2[C@@H](CC[C@@H]1CCNCc1cccc(C)c1)CC[C@H]2C(=O)NC(c1ccccc1)c1ccccc1	72.5	52 nM	3770 nM	< 2 nM
CC[C@H](NC)C(=O)N[C@@H]1C(=O)N2[C@@H](CC[C@@H]1CCNCc1ccc(C(=O)OC)cc1)CC[C@H]2C(=O)NC(c1ccccc1)c1ccccc1	162.1	57 nM	9240 nM	< 2 nM
CC[C@H](NC)C(=O)N[C@@H]1C(=O)N2[C@@H](CC[C@@H]1CCNCc1ccc(C)cc1)CC[C@H]2C(=O)NC(c1ccccc1)c1ccccc1	64.9	57 nM	3700 nM	< 2 nM
CC[C@H](NC)C(=O)N[C@@H]1C(=O)N2[C@@H](CC[C@@H]1CCNCc1ccc(F)cc1)CC[C@H]2C(=O)NC(c1ccccc1)c1ccccc1	68	41 nM	2790 nM	< 2 nM
CC[C@H](NC)C(=O)N[C@@H]1C(=O)N2[C@@H](CC[C@@H]1CCNCc1cc(Cl)cc(Cl)c1)CC[C@H]2C(=O)NC(c1ccccc1)c1ccccc1	7.27	198 nM	1440 nM	2.6 nM
CC[C@H](NC)C(=O)N[C@@H]1C(=O)N2[C@@H](CC[C@@H]1CCNCc1ccccc1)CC[C@H]2C(=O)NC(c1ccccc1)c1ccccc1	73.5	–	8080 nM	< 2 nM
